The record followed here is patent publication US10011571B2, “Preparation method for aromatic heterocyclic compound used as selective JAK3 and/or JAK1 kinase inhibitor and application of aromatic heterocyclic compound” (SHENZHEN CHIPSCREEN BIOSCIENCES, LTD., priority 2014, dated 2018).

pIC50: −log10 of the molar value.

One assay deals with TYK2 (Homo sapiens (Human), UniProt P29597). Briefly: Eurofins IC50Profiler radiometric kinase assay, TYK2. The conditions noted are these: 9 semilog concentrations. Format: biochemical. From the text:
A proportion of the compounds of the present invention are subjected to kinase profile screening (KinaseProfiler™)) and enzymatic inhibitory activity (IC50Profiler™)) assay by entrusting Eurofins company (http://www.eurofins.com). Besides the kinases in the JAK family, the kinases that have been screened for their activity also include most Group 3F and Group 4 kinases (ITK, BLK, TBK1, VEGFRs, ERBBs, etc.), and blood system related kinases (Zhang J. et al. 2009, Nat. Rev. Cancer., 9: 28-39). The concentration of the test compound for kinase profile screening is 1 μM, and a gradient of 9 semilog concentration gradients are used to determine IC50. Detection is carried out according to standard procedure of Eurofins Company. Briefly, according to the requirements of different kinase reactions, 0.2 μL test compound (50 μM, dissolved in dimethyl sulfoxide (DMSO)) is added to reaction buffer containing specific kinase (the buffer system containing 20 mM MOPS, 1 mM EDTA, 0.01% Brij-35, 5% Glycerol, 0.1% β-mercaptoethanol, 1 mg/mL BSA, or 50 mM TRIS, 0.1 mM EGTA, 0.1 mM Na3VO4, 0.1% β-mercaptoethanol, 1 mg/mL BSA, based on the type of kinase used). […] After drying, radio-activity is detected. […]

Assay [1] concerns IL-4/JAK1 & 3/STAT6 (THP-1). The assay can be described thus: Intracellular activity assay, IL-4 induced STAT6 phosphorylation in THP-1. The class given is cell-based. The conditions noted are these: Homo sapiens; inhibition of STAT6 phosphorylation, THP-1, IL-4 10 ng/mL. From the text:
In this experiment, western blot (WB) and flow cytometry are used to evaluate the intracellular activities of the test compounds by comparing the relative levels of the signals of phosphorylated and non-phosphorylated STATs in 5 cell models, including U937, THP-1, CTLL-2, UT-7/EPO and activated human periphery blood cell (hPBC). The primary antibody and secondary antibody used in WB hybridization in this experiment are purchased from Cell Signaling Company (http://www.cellsignal.com). The fluorescence-labeled antibodies used in flow cytometry are purchased from eBiosciences Company (http://www.ebioscience.com).
THP-1 is a monocytic cell line. […] The intracellular inhibitory activity of the compounds on JAK1/3 can be evaluated by detecting the change of the phosphorylation level of STAT6. […]
(2) Protein extraction and WB detection: after extraction, the protein content is determined. […]
(3) Signal detection: the hybridization signal is detected by X-ray imaging. The grey scale signal obtained by scanning is converted to digital signal, and the signal intensities for both phosphorylated STATs and STATs are each calculated to evaluate the phosphorylation inhibitory activities of the compounds on STATs. […]
(2) Cell fixation and fluorescence labeling: the cells are fixed using paraformaldehyde (30 min), and subsequently treated for membrane permeability in chilled methanol (15 min). […]

TYK2, sequence (P29597 whole entry, species assumed): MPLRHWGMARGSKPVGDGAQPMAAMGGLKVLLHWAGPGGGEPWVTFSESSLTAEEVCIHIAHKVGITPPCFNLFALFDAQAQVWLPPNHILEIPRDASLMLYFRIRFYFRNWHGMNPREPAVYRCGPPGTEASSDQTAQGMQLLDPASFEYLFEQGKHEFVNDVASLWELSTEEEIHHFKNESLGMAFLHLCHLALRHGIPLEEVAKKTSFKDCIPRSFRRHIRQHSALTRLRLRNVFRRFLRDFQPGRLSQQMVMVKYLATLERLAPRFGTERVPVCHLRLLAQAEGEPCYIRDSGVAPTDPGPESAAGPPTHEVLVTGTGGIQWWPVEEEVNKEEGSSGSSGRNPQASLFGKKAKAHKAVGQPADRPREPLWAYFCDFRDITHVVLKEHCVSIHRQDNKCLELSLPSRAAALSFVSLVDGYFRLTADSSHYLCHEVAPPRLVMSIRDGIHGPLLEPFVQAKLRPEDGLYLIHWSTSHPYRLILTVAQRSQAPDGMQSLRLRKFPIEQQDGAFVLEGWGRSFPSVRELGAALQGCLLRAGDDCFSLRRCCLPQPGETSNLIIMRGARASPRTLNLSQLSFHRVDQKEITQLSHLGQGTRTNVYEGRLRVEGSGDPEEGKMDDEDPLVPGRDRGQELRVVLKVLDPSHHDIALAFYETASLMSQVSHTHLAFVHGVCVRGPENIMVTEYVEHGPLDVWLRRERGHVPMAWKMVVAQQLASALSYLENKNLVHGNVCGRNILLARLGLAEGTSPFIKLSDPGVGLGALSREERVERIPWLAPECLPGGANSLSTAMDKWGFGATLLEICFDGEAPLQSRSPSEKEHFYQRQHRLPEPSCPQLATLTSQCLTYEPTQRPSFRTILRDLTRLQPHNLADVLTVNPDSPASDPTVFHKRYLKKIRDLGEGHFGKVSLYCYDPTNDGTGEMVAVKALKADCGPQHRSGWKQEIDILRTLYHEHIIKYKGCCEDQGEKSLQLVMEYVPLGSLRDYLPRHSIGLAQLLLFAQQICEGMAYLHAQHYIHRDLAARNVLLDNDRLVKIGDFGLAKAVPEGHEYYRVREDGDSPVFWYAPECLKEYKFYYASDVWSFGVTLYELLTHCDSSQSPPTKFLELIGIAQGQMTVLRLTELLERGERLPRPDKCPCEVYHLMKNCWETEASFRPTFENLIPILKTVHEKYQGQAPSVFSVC

Take `C=CC(=O)N(C)c1cc(Nc2ncc(Cl)c(NCCCNC(=O)c3ccc(C#N)cc3)n2)ccc1F` [Example 7, N-(3-(5-chloro-2-(4-fluoro-3-(N-methylacrylamido)phenylamino)pyrimidinyl-4-amino)propyl)-4-cyano-benzamide]: the pIC50 (usually the IC50 on a negative log10 scale, so that one unit is a factor of ten) against TYK2 is less than 5.00; in assay [1], 5.77. In turn, `C=CC(=O)N(C)c1cc(Nc2ncc(Cl)c(NCCCNC(=O)c3ccc(C(F)(F)F)cc3)n2)ccc1F` [Example 22, N-(3-(5-chloro-2-(4-fluoro-3-(N-methylacrylamido)phenylamino)pyrimidinyl-4-amino)propyl)-4-trifluoromethylbenzamide] gave a pIC50 against TYK2 of less than 5.00. Regarding `C=CC(=O)N(C)c1cc(Nc2ncc(Cl)c(NCCCNC(=O)c3ccc(F)cc3)n2)ccc1F` [Example 23, N-(3-(5-chloro-2-(4-fluoro-3-(N-methylacrylamido)phenylamino)pyrimidinyl-4-amino)propyl)-4-fluorobenzamide], in assay [1], the pIC50 was 5.76.
